# Article PMC11157767 (Molecular Cancer, 2024)
# Where “and” joins values, the source holds several entries; their conditions need not be identical. Equal entries are not always repeated. Where two headings read alike, the source gives them in different places.
# Legend:
# TRIM24-MET-r cells = test: 3-day dose-response assay, TRIM24-MET-r cells; format: cell-based; conditions: Homo sapiens
# RAD51 = test: Western blot of RAD51 in TRIM24-MET or TFG-MET cells, 24 hours; format: cell-based, human and mouse
# Experimental: Error bars display standard error of mean, statistical significance was determined using t-test analysis. (****;p<0.0001, ***;p<0.001, **;p<0.01, *;p<0.05). […] Each dot represents an individual replicate. Error bars display standard error of the mean. Statistical significance was determined using a One-Way ANOVA followed by Tukey’s multiple comparisons test (*p<0.05, **p<0.01, ***p<0.001, ****p<0.0001). Lysate from lane 10 was excluded due to the different timepoint after RT
# pMET, pErk, pAkt = test: Phosphoprotein IHC/western blot in TFG-MET allograft tumors (PD and Survival cohort); format: in vivo, mouse; conditions: for levels of phosphorylated MET, Erk and Akt in initial neoplasms: PD cohort, after second treatment, vs vehicle
# Experimental: Error bars display standard error of the mean. Statistical significance was determined using a One-Way ANOVA followed by Tukey’s multiple comparisons test (*p<0.05, **p<0.01, ***p<0.001, ****p<0.0001)
# [1] = system: murine TFG-MET tumor cells; conditions: 7 days; RT 0Gy - 8Gy
# Experimental: For both compounds 1 µM was used as positive control.
# Compound concentrations comprised 10µM and 9 serial 1:3 dilutions in 4 replicates each and radiation doses ranged from 0Gy – 8Gy. […] Tested compound concentrations comprised 10 µM and 9 serial 1:3 dilutions in 4 replicates each. ZIP synergy scores were calculated based on cell numbers according to the CellTiter-Glo Assay by using the synergyfinder tool.
# [2] = In vitro protein binding assay, culture media; format: in vitro ADME; conditions: read-out: unbound drug fraction, Culture Media, AVG
# [3] = system: murine TFG-MET tumor cells; test: cells; conditions: Mus musculus
# Text: To calculate unbound EC50 and EC90 values, total values were multiplied with unbound drug fractions in culture media (Table 1).
# [4] = Plasma pharmacokinetics in CD-1 nude mice (NCA); format: in vivo, mouse; conditions: for AUC / AUC(0-inf) / AUC(0-t) / CL/F / Cmax / Tmax / half-life / k el / Vd/F: CD-1 nude, mouse; for AUC: plasma, 25 mg/kg, read-out: total plasma AUC; for AUC(0-inf) / AUC(0-t) / CL/F / Cmax / Tmax / half-life / k el / Vd/F / Clast / Tlast: Plasma, NCA estimate; for Vd/F: read-out: Vz/F
# Experimental: Fig. 2 TFG-MET-driven mouse model and pharmacokinetic profiles of MET inhibitors. a Schematic illustrating the method and utilized vectors to induce CRISPR/Cas9-mediated Trp53 deletion and TFG-MET overexpression following in utero electroporations. b H&E staining and Immunohistochemical analysis of a tumor generated by in utero electroporation, visualized by the HA-tag of TFG-MET. […] Three mice were analyzed per compound and time point. Error bars indicate the standard deviation. Dashed rectangles indicate time windows of radiation in the following preclinical allograft study
# See Methods – Pharmacokinetics section for a description of abbreviations.
# TRIM24-MET-i cells = test: 3-day dose-response assay, TRIM24-MET-i cells; format: cell-based; conditions: Homo sapiens
# TFG-MET allograft tumors = test: TFG-MET allograft preclinical trial in CD1 mice, Survival cohort (survival, BLI, body weight); format: in vivo, mouse; conditions: for BLI signal, individual mice: Murine allografts
# Experimental: All treatments started 1 week after transplantation. Radio therapy was administered for 6 days, delivering 12 Gy total. Compound treatment was continued for 84 days. […] N = 8 (vehicle arms) or n = 10 (compound-treated arms), respectively. […] First row is depicted in another intensity scale to visualize tumors in all mice. The depicted scale bar indicates the range from 5x10^5-1x10^7 photons/sec/cm^2/sr.
# Survival, body weight and tumor burden data from TFG-MET allograft-bearing mice. a,Schematic illustrating the preliminary in vivo study to determine the efficacy of RT alone. b, Survival curve of mice depicted in a. […] Each line represents one mouse. The ends of lines indicate the onset of neurological symptoms and thereby the endpoints.
# Bioluminescence signals of in vivo trials.
# [5] = cited from earlier work
structure (smiles),measurement,setting,value
CNC(=O)c1ccc(-c2cnc3ncc(Cc4ccc5ncccc5c4)n3n2)cc1F [Capmatinib],EC90,"TRIM24-MET-r cells; 72 h, TRIM24-MET-r, 3-day dose response, read-out: EC90 Total",199 nM
same,EC90,"TRIM24-MET-r cells; TRIM24-MET-r, total value multiplied with unbound fraction in culture media, read-out: EC90 Unbound",141 nM
same,RAD51 protein level,RAD51,downregulation
same,"levels of phosphorylated MET, Erk and Akt in initial neoplasms","pMET, pErk, pAkt",greatly reduced levels
same,animals with pMET and pErk reduced to background levels,"pMET, pErk, pAkt; Survival cohort, sacrificed under treatment",4/6
same,combination effect with RT (ZIP synergy model),[1],additive effect with a trend towards synergy
same,fraction unbound,[2],0.705
same,EC90,[3]; read-out: EC90 (nM) Total,29.9 nM
same,EC90,[3]; read-out: EC90 (nM) Unbound*,21.1 nM
same,plasma concentration at 16 hours post-dose,[4]; CD1 nude mice,below the detection limit
same,AUC,[4],16400 ng·h/mL
same,AUC(0-inf),[4],16400 ng·h/mL
same,AUC(0-t),[4],14900 ng·h/mL
same,CL/F,[4],25.3 mL/min/kg
same,Cmax,[4],6200 ng/mL
same,Tmax,[4],0.5 h
same,half-life,[4],2.27 h
same,k el,[4],8.47e-05 s⁻¹
same,Vd/F,[4],4.99 L/kg
same,Clast,[4],540 ng/mL
same,Tlast,[4],8 h
same,EC90,"TRIM24-MET-i cells; 72 h, TRIM24-MET-i, 3-day dose response, read-out: EC90 Total",5.93 nM
same,EC90,"TRIM24-MET-i cells; TRIM24-MET-i, total value multiplied with unbound fraction in culture media, read-out: EC90 Unbound",4.18 nM
same,"BLI signal, individual mice","TFG-MET allograft tumors; day 7, drug + RT",2.90E+08 and 3.10E+06 and 2.30E+07 and 4.30E+06 and 9.70E+05 and 1.20E+06 and 8.80E+06 and 3.20E+06 and 7.40E+06 and 6.80E+07
same,"BLI signal, individual mice","TFG-MET allograft tumors; day 7, drug alone",2.90E+06 and 5.20E+06 and 4.80E+06 and 3.30E+07
same,"BLI signal, individual mice","TFG-MET allograft tumors; day 10, drug + RT",1.80E+08 and 2.30E+06 and 4.90E+07 and 1.20E+07 and 6.70E+06 and 5.70E+05 and 1.10E+07 and 1.60E+06 and 6.20E+06 and 3.60E+07
same,"BLI signal, individual mice","TFG-MET allograft tumors; day 10, drug alone",2.30E+06 and 7.80E+06 and 1.50E+07 and 6.40E+07
same,"BLI signal, individual mice","TFG-MET allograft tumors; day 14, drug + RT",2.10E+08 and 3.20E+06 and 6.50E+07 and 1.30E+07 and 3.10E+05 and 1.60E+05 and 7.60E+06 and 6.60E+05 and 1.20E+08
same,"BLI signal, individual mice","TFG-MET allograft tumors; day 14, drug alone",8.30E+06 and 6.10E+07 and 2.00E+07 and 6.20E+07
same,"BLI signal, individual mice","TFG-MET allograft tumors; day 21, drug + RT",1.10E+05 and 1.60E+05 and 1.30E+05 and 1.50E+07 and 5.10E+06 and 3.60E+06 and 6.20E+06 and 1.40E+05 and 9.20E+06
same,"BLI signal, individual mice","TFG-MET allograft tumors; day 21, drug alone",8.80E+07 and 2.30E+08 and 7.60E+07 and 2.10E+08
same,"BLI signal, individual mice","TFG-MET allograft tumors; day 28, drug + RT",1.10E+05 and 1.60E+05 and 2.00E+05 and 2.20E+08 and 4.30E+07 and 3.30E+07 and 5.10E+07 and 1.50E+05 and 5.80E+06
same,"BLI signal, individual mice","TFG-MET allograft tumors; day 28, drug alone",5.10E+08 and 5.20E+08 and 2.60E+08 and 1.90E+08
same,"BLI signal, individual mice","TFG-MET allograft tumors; day 35, drug + RT",1.10E+05 and 1.50E+05 and 1.40E+05 and 9.90E+05 and 1.00E+07
same,"BLI signal, individual mice","TFG-MET allograft tumors; day 42, drug + RT",1.20E+05 and 1.30E+05 and 1.40E+05 and 2.50E+06 and 4.40E+07
same,"BLI signal, individual mice","TFG-MET allograft tumors; day 49, drug + RT",1.30E+05 and 1.20E+05 and 7.40E+06
same,"BLI signal, individual mice","TFG-MET allograft tumors; day 56, drug + RT",1.00E+05 and 1.40E+05 and 1.50E+05 and 6.60E+07 and 1.20E+08
same,"BLI signal, individual mice","TFG-MET allograft tumors; day 63, drug + RT",1.10E+05 and 2.00E+05 and 1.40E+05 and 1.90E+08
same,"BLI signal, individual mice","TFG-MET allograft tumors; day 70, drug + RT",1.10E+05 and 1.20E+05
same,"BLI signal, individual mice","TFG-MET allograft tumors; day 77, drug + RT",1.02E+05 and 1.30E+05 and 1.10E+05
same,"BLI signal, individual mice","TFG-MET allograft tumors; day 84, drug + RT",1.06E+05 and 9.93E+04 and 1.20E+05
same,"BLI signal, individual mice","TFG-MET allograft tumors; day 91, drug + RT",9.34E+04 and 1.44E+05 and 1.14E+05
same,animals with reduction of tumor burden by week 3 (BLI),TFG-MET allograft tumors; capmatinib + RT (12 Gy),8/10
same,increase of survival rate,"TFG-MET allograft tumors; capmatinib + RT (12 Gy), Survival cohort",3 fold
same,mice reaching 140 days after transplantation without residual tumor,"TFG-MET allograft tumors; capmatinib + RT arm, n = 10",Three
same,mean steady total plasma AUC,"[5]; humans, 400 mg BID orally","17,300 hr-ng/mL"
C[C@@H](Oc1cc(-c2cnn(C3CCNCC3)c2)cnc1N)c1c(Cl)ccc(F)c1Cl [Crizotinib],EC50,"TRIM24-MET-r cells; 72 h, read-out: EC50 Total",151 nM
same,EC90,"TRIM24-MET-r cells; 72 h, read-out: EC90 Total",5670 nM
same,EC50,TRIM24-MET-r cells; read-out: EC50 Unbound,93 nM
same,EC90,TRIM24-MET-r cells; read-out: EC90 Unbound,3500 nM
same,RAD51 protein level,RAD51,downregulation
same,"levels of phosphorylated MET, Erk and Akt in initial neoplasms","pMET, pErk, pAkt",less complete reduction
same,combination effect with RT (ZIP synergy model),[1],additive effect with a trend towards synergy
same,fraction unbound,[2],0.617
same,EC50,[3]; read-out: EC50 (nM) Total,124 nM
same,EC50,[3]; read-out: EC50 (nM) Unbound*,76.2 nM
same,EC90,[3]; read-out: EC90 (nM) Total,612 nM
same,EC90,[3]; read-out: EC90 (nM) Unbound*,378 nM
same,IC50,[3]; read-out: in vitro IC50,124 nM
same,time of reaching Cmax,"[4]; CD1 nude mice, post dose, brain and plasma not distinguished",4 h
same,AUC,[4],64700 ng·h/mL
same,AUC(0-inf),[4],64700 ng·h/mL
same,AUC(0-t),[4],42400 ng·h/mL
same,CL/F,[4],25.8 mL/min/kg
same,Cmax,[4],5040 ng/mL
same,Tmax,[4],1 h
same,half-life,[4],10.3 h
same,k el,[4],1.86e-05 s⁻¹
same,Vd/F,[4],23 L/kg
same,Clast,[4],1670 ng/mL
same,Tlast,[4],16 h
same,EC50,"TRIM24-MET-i cells; 72 h, read-out: EC50 Total",18.1 nM
same,EC90,"TRIM24-MET-i cells; 72 h, read-out: EC90 Total",322 nM
same,EC50,TRIM24-MET-i cells; read-out: EC50 Unbound,11.1 nM
same,EC90,TRIM24-MET-i cells; read-out: EC90 Unbound,198 nM
same,"BLI signal, individual mice","TFG-MET allograft tumors; day 7, drug + RT",3.20E+07 and 3.90E+07 and 3.50E+08 and 1.10E+08 and 1.40E+07 and 8.30E+05 and 5.70E+06 and 1.70E+07 and 6.90E+05 and 4.00E+06
same,"BLI signal, individual mice","TFG-MET allograft tumors; day 7, drug alone",8.40E+06 and 1.40E+07 and 3.90E+08 and 2.00E+06 and 1.50E+07 and 3.90E+06 and 6.00E+06 and 4.10E+06 and 1.20E+06 and 8.20E+06
same,"BLI signal, individual mice","TFG-MET allograft tumors; day 10, drug + RT",3.00E+07 and 4.60E+07 and 1.60E+08 and 1.80E+08 and 5.10E+07 and 1.20E+06 and 1.50E+07 and 6.00E+05 and 7.00E+06
same,"BLI signal, individual mice","TFG-MET allograft tumors; day 10, drug alone",2.30E+07 and 6.50E+07 and 3.70E+08 and 3.10E+06 and 5.60E+07 and 6.20E+06 and 3.30E+07 and 1.30E+07 and 3.50E+06 and 2.70E+06
same,"BLI signal, individual mice","TFG-MET allograft tumors; day 14, drug + RT",1.90E+06 and 9.10E+07 and 9.70E+07 and 7.90E+07 and 7.60E+05 and 1.70E+08 and 5.90E+08 and 6.70E+05 and 3.10E+07
same,"BLI signal, individual mice","TFG-MET allograft tumors; day 14, drug alone",5.20E+07 and 1.80E+09 and 3.60E+07 and 3.20E+08 and 6.50E+07 and 1.60E+08 and 1.70E+07 and 1.10E+07 and 2.00E+07
same,"BLI signal, individual mice","TFG-MET allograft tumors; day 21, drug + RT",1.00E+05 and 5.60E+06 and 1.60E+07
same,"BLI signal, individual mice","TFG-MET allograft tumors; day 21, drug alone",3.40E+07 and 2.10E+08 and 2.60E+08 and 2.60E+07 and 1.40E+08 and 8.10E+07
same,"BLI signal, individual mice","TFG-MET allograft tumors; day 28, drug + RT",1.20E+08 and 2.10E+07
same,"BLI signal, individual mice","TFG-MET allograft tumors; day 28, drug alone",5.90E+07 and 2.20E+08 and 4.40E+08 and 3.00E+08
same,"BLI signal, individual mice","TFG-MET allograft tumors; day 35, drug + RT",1.30E+05 and 1.70E+07
same,"BLI signal, individual mice","TFG-MET allograft tumors; day 35, drug alone",1.00E+07 and 8.70E+08 and 6.50E+08
same,"BLI signal, individual mice","TFG-MET allograft tumors; day 42, drug + RT",1.30E+05
same,"BLI signal, individual mice","TFG-MET allograft tumors; day 42, drug alone",1.00E+07 and 1.20E+09
same,"BLI signal, individual mice","TFG-MET allograft tumors; day 49, drug alone",1.90E+06
same,"BLI signal, individual mice","TFG-MET allograft tumors; day 56, drug + RT",1.30E+05
same,"BLI signal, individual mice","TFG-MET allograft tumors; day 56, drug alone",2.20E+06
same,"BLI signal, individual mice","TFG-MET allograft tumors; day 63, drug alone",1.90E+07
same,"BLI signal, individual mice","TFG-MET allograft tumors; day 70, drug + RT",1.00E+05
same,"BLI signal, individual mice","TFG-MET allograft tumors; day 70, drug alone",2.30E+07
same,"BLI signal, individual mice","TFG-MET allograft tumors; day 84, drug + RT",1.26E+05
same,"BLI signal, individual mice","TFG-MET allograft tumors; day 91, drug alone",1.06E+05
same,mean steady total plasma AUC,"[5]; pediatric solid tumors, maximum tolerated dose 280 mg/m^2 BID","6,990 hr-ng/mL"
